# Reference: US9656945B2, “3-acyl-ingenols II” (LEO LABORATORIES LIMITED, priority 2010, dated 2017)
# Read-outs that look alike come from different tables or passages of the source.
# Assays:
# Type in all cases: cell-based
# [1] = test system: Primary human epidermal keratinocytes, HeKa; assay: HeKa cytokine release (IL-8) assay
# Procedure: Primary human epidermal keratinocytes, HeKa, were seeded (10.000 cells/well) in 96-well plates the day before the assay. Test compounds were diluted in DMSO (dimethyl sulfoxide) and further diluted in assay medium and pipetted into wells of 96 well-plates containing HeKa cells. The plates were incubated for 6 h at 37° C. in humidified air with 5% CO2. Plates are centrifuged briefly to spin down cells at 4° C., the supernatant was removed and analysed by Meso Scale Discovery (MSD) 4-spot cytokine assay (Pro-inflammatory II Ultra Sensitive kit, MSD, MD, USA). The MSD assay employs a sandwich immunoassay format where capture antibodies were coated in a patterned array on the bottom of the wells of a 4-Spot-Multi-MSD plate. Standard samples were incubated in the MULTI-SPOT plates as well, and the cytokine (IL-8) binds to its corresponding capture antibody spot. The cytokine level was quantitated on a SECTOR™ Imager using a cytokine-specific Detection Antibody labelled with MSD SULFO-TAG™ reagent.
# (§1) Test compound titration curves were fitted to a four-parameter sigmoidal curve after normalizing the effect of the test compound to the effect of the positive control (1.5×10^−7 M PEP0005). Rel EC50 denotes the concentration of test compound producing an effect that is midway between the fitted top and bottom.
# [2] = test system: HeLa cells (ATCC CCL-002); assay: Necrosis assay; settings: Homo sapiens, 0.5 h, read-out: HeLa necrosis EC50 range
# Procedure: HeLa cells (ATCC CCL-002) were grown in minimal essential medium (Invitrogen catalog no. 42360) containing 10% fetal bovine serum, 100 IU/ml penicillin and 100 μg/ml streptomycin. 4,000-6,000 cells were seeded into 96-well black ViewPlates-plates, clear bottom, (Perkin Elmer) in 100 μl medium and incubated overnight. Compounds were dissolved and pre-diluted in DMSO in 96-well polypropylene plates (Greiner) in a concentration range of 15 μM to 600 μM. At the time of the experiment cell plates were placed on heating blocks at 37° C., medium was removed and 40 μl fresh, pre-warmed medium was added per well. Cells were incubated for 15 min before addition of compounds. In parallel, 3 μl of compounds were diluted with 197 μl growth medium on a Tecan freedom-EVO pipetting station using 250 μl/s pipetting speed, in order to ensure effective mixing of the highly concentrated compound solutions with the aqueous phase. These pre-dilution plates were then equilibrated on heating blocks at 37° C. for 10 min. 80 μl pre-diluted compound were transferred manually to the corresponding wells containing HeLa cells yielding compound concentrations of 10 μM to 400 μM. Control conditions were 1% DMSO in growth medium (100% viability) and 400 μM ingenol mebutate in growth medium (0% viability). Plates were incubated on the heating blocks at 37° C. for 30 min. At the end of the incubation 10 μl PrestoBlue reagent (Invitrogen) were added to each well, plates were sealed with black seal, followed by incubation at 37° C. for 10 min with gentle shaking (150 rpm). Subsequently, plates were placed at room temperature for 20-30 min. Plates were read immediately after on an Envision Fluorescence reader (Perkin Elmer) with excitation at 535 nm and emission at 630 nm. Test compound titration curves were fitted to a four-parameter sigmoidal curve after normalizing the effect of the test compound to the effect of the positive control (4 10^−4 M PEP0005/ingenol mebutate). AbsEC50 denotes the concentration of test compound producing 50% effect.
# [3] = test system: PMN's (polymorphonuclear leukocytes); assay: Neutrophil oxidative burst assay; settings: Leukocyte, 40 min, read-out: Neutrophil oxidative burst Rel EC50 range
# Procedure: PMN's (polymorphonuclear leukocytes) were isolated and purified from fresh buffy coats by sequential sedimentation, density centrifugation and lysis of contaminating erythrocytes. Buffy coats were incubated with 2% methocel for 30-45 min to differentially sediment red blood cells. The leukocyte-rich supernatant was transferred to lymphoprep tubes to remove mononuclear cells by density centrifugation (400×g, 30 min). The pellet was resuspended and any remaining erythrocytes lysed using 0.2% NaCl for 30 sec before restoring isotonicity by the addition of 1.2% NaCl. This step was repeated until the cell pellet appears relatively free of red blood cells. Cells were resuspended in DPBS (Dulbecco's Phosphate Buffered Saline) (w.o. Ca^2+, Mg^2+) and the concentration adjusted to 1.4×10^6 cells/ml in HBSS (Hanks Balanced Salt solution) (w Ca^2+, Mg^2+) containing 0.1% BSA (Bovine Serum Albumin) and 5 mM glucose just prior to assay initiation. Titrated reference and test compounds were pre-mixed with HE (Hydroethidine) (10 μM final assay concentration) before addition to 96-well plates containing 2.5×10^5 cells. Following 40 min incubation at RT, changes in the respiratory burst was estimated by measuring fluorescence at 579 nm (excitation: 485 nm) using an Envision plate reader.
# as §1, with “(5×10^−7” for “(1.5×10^−7”, “bottom. Abs EC50 is the concentration of test compound that provokes a response corresponding to 50% of the maximal effect associated with the positive control (5×10^−7 M PEP0005).” for “bottom.”
# [4] = 6 h, read-out: HeKa cytokine release (IL-8) Rel EC50 range
Structure (SMILES),"EC50 [1, 4] [µM]",EC50 [2] [µM],EC50 [3] [µM],"EC50 ([1]; 6 h at 37° C., normalized to positive control 1.5×10^−7 M PEP0005, read-out: HeKa cytokine release (IL-8) Rel EC50 range) [µM]","EC50 ([2]; 30 min at 37° C., PrestoBlue, normalized to 4 10^−4 M PEP0005/ingenol mebutate) [µM]","EC50 ([3]; 40 min incubation at RT, normalized to positive control 5×10^−7 M PEP0005) [µM]"
"CC1=C[C@]23C(=O)[C@@H](C=C(CO)[C@@H](O)[C@]2(O)[C@H]1OC(=O)c1c(N)cccc1F)[C@H]1[C@@H](C[C@H]3C)C1(C)C [Compound 341, Ingenol 3-(2-amino-6-fluoro-benzoate)]",< 0.02,< 150,< 0.02,–,–,–
"CNc1cccc(Cl)c1C(=O)O[C@H]1C(C)=C[C@]23C(=O)[C@@H](C=C(CO)[C@@H](O)[C@]12O)[C@H]1[C@@H](C[C@H]3C)C1(C)C [Compound 342, Ingenol 3-(2-chloro-6-methylamino-benzoate)]",< 0.02,< 150,0.02 to 0.1,–,–,–
"CNc1cccc(F)c1C(=O)O[C@H]1C(C)=C[C@]23C(=O)[C@@H](C=C(CO)[C@@H](O)[C@]12O)[C@H]1[C@@H](C[C@H]3C)C1(C)C [Compound 343, Ingenol 3-(2-fluoro-6-methylamino-benzoate)]",< 0.02,< 150,< 0.02,–,–,–
"CC1=C[C@]23C(=O)[C@@H](C=C(CO)[C@@H](O)[C@]2(O)[C@H]1OC(=O)C1=C(C)CCCC1(C)C)[C@H]1[C@@H](C[C@H]3C)C1(C)C [Compound 345, Ingenol 3-(2,6,6-trimethylcyclohexene-1-carboxylate)]",< 0.02,< 150,< 0.02,–,–,–
"C/C=C(/C)C(=O)O[C@H]1C(C)=C[C@]23C(=O)[C@@H](C=C(CO)[C@@H](O)[C@]12O)[C@H]1[C@@H](C[C@H]3C)C1(C)C [Ingenol-3-angelate, reference compound]",–,–,–,< 0.02,150 to 350,< 0.02
